{
  "source": "PubChem BioAssay AID743175",
  "about": "(Broad Institute, 2013)",
  "note": "The source made the active and inactive calls. No rule for the calls is given here.",
  "data": [
    {"test": "inhibitor activity on non-replicating M. tuberculosis, dose response, plate reader, dry powder (AID 743175)", "conditions": "Mycobacterium tuberculosis non-replicating, growth inhibition plate reader; at 23.5 µM (top of the series)", "values": [
      {"smiles": "Cc1noc(C)c1NC(=O)Nc1ccc2c(c1)C(=O)N(C)[C@@H]1CC[C@@H](CC(=O)NCc3ccc(Cl)cc3)O[C@H]1CO2", "activity change, negative = inhibition": "-4.47% (inactive)"},
      {"smiles": "COCCNC(=O)C[C@@H]1C[C@@H]2c3cc(NC(=O)Nc4ccc(C(F)(F)F)cc4)ccc3O[C@@H]2[C@H](CO)O1", "activity change, negative = inhibition": "6.32% (inactive)"},
      {"smiles": "C[C@@H]1CN([C@@H](C)CO)C(=O)c2ccccc2-c2ccccc2CO[C@H]1CN(C)C(=O)[C@H](C)c1ccccc1", "activity change, negative = inhibition": "6.24% (inactive)"}
    ]},
    {"test": "inhibitor activity on non-replicating M. tuberculosis, dose response, plate reader, dry powder (AID 743175)", "conditions": "Mycobacterium tuberculosis non-replicating, growth inhibition plate reader; at 26 µM (top of the series)", "values": [
      {"smiles": "C[C@H](CO)N1C[C@H](C)[C@H](CN(C)C(=O)[C@H](C)c2ccccc2)OCc2ccccc2-c2ccccc2C1=O", "activity change, negative = inhibition": "-5.31% (inactive)"},
      {"smiles": "C[C@H](C(=O)N(C)C[C@H]1OCc2ccccc2-c2ccccc2C(=O)N([C@H](C)CO)C[C@@H]1C)c1ccccc1", "activity change, negative = inhibition": "-6.85% (inactive)"},
      {"smiles": "O=C(C[C@H]1C=C[C@@H](NC(=O)Nc2cc(F)ccc2F)[C@H](CO)O1)NCc1ccc2c(c1)OCO2", "activity change, negative = inhibition": "-2.19% (inactive)"},
      {"smiles": "COCCNC(=O)C[C@H]1C[C@H]2c3cc(NC(=O)Nc4ccc(C(F)(F)F)cc4)ccc3O[C@H]2[C@@H](CO)O1", "activity change, negative = inhibition": "6.87% (inactive)"},
      {"smiles": "C[C@H](C(=O)N(C)C[C@@H]1OCc2ccccc2-c2ccccc2C(=O)N([C@@H](C)CO)C[C@H]1C)c1ccccc1", "activity change, negative = inhibition": "1.76% (inactive)"},
      {"smiles": "COCCNC(=O)C[C@@H]1C[C@@H]2c3cc(NC(=O)Nc4ccc(C(F)(F)F)cc4)ccc3O[C@@H]2[C@@H](CO)O1", "activity change, negative = inhibition": "9.37% (inactive)"},
      {"smiles": "C[C@H](C(=O)N(C)C[C@@H]1OCc2ccccc2-c2ccccc2C(=O)N([C@@H](C)CO)C[C@@H]1C)c1ccccc1", "activity change, negative = inhibition": "-3.21% (inactive)"},
      {"smiles": "O=C(C[C@H]1C[C@H]2c3cc(NC(=O)c4cccnc4)ccc3O[C@H]2[C@@H](CO)O1)NCC(F)(F)F", "activity change, negative = inhibition": "4.47% (inactive)"},
      {"smiles": "Cc1noc(C)c1NC(=O)Nc1ccc2c(c1)C(=O)N(C)[C@@H]1CC[C@H](CC(=O)NCc3ccc(Cl)cc3)O[C@@H]1CO2", "activity change, negative = inhibition": "-6.75% (inactive)"},
      {"smiles": "C[C@@H]1CN([C@H](C)CO)C(=O)c2ccccc2-c2ccccc2CO[C@@H]1CN(C)C(=O)[C@H](C)c1ccccc1", "activity change, negative = inhibition": "-3.88% (inactive)"},
      {"smiles": "O=C(C[C@@H]1C=C[C@@H](NC(=O)Nc2cc(F)ccc2F)[C@H](CO)O1)NCc1ccc2c(c1)OCO2", "activity change, negative = inhibition": "-1.51% (inactive)"},
      {"smiles": "O=C(C[C@H]1C[C@H]2c3cc(NC(=O)c4cccnc4)ccc3O[C@H]2[C@H](CO)O1)NCC(F)(F)F", "activity change, negative = inhibition": "10.5% (inactive)"},
      {"smiles": "CNC[C@H]1OCCCC[C@H](C)Oc2ccc(NC(=O)CCCN(C)C)cc2C(=O)N([C@@H](C)CO)C[C@@H]1C", "activity change, negative = inhibition": "-0.478% (inactive)"},
      {"smiles": "CNC[C@@H]1OCCCC[C@@H](C)Oc2ccc(NC(=O)CCCN(C)C)cc2C(=O)N([C@@H](C)CO)C[C@H]1C", "activity change, negative = inhibition": "6.36% (inactive)"},
      {"smiles": "C[C@H](CO)N1C[C@H](C)[C@@H](CN(C)C(=O)[C@H](C)c2ccccc2)OCc2ccccc2-c2ccccc2C1=O", "activity change, negative = inhibition": "4.38% (inactive)"},
      {"smiles": "CNC[C@H]1OCCCC[C@H](C)Oc2ccc(NC(=O)CCCN(C)C)cc2C(=O)N([C@H](C)CO)C[C@@H]1C", "activity change, negative = inhibition": "0.293% (inactive)"},
      {"smiles": "COCCNC(=O)C[C@@H]1C[C@H]2c3cc(NC(=O)Nc4ccc(C(F)(F)F)cc4)ccc3O[C@H]2[C@H](CO)O1", "activity change, negative = inhibition": "-6% (inactive)"},
      {"smiles": "C[C@H](C(=O)N(C)C[C@H]1OCc2ccccc2-c2ccccc2C(=O)N([C@H](C)CO)C[C@H]1C)c1ccccc1", "activity change, negative = inhibition": "-2.72% (inactive)"},
      {"smiles": "O=C(C[C@@H]1C=C[C@H](NC(=O)Nc2cc(F)ccc2F)[C@@H](CO)O1)NCc1ccc2c(c1)OCO2", "activity change, negative = inhibition": "-6.79% (inactive)"}
    ]},
    {"test": "inhibitor activity on non-replicating M. tuberculosis, dose response, plate reader, dry powder (AID 743175)", "conditions": "Mycobacterium tuberculosis non-replicating, growth inhibition plate reader; at 38 µM (top of the series)", "values": [
      {"smiles": "CCCOC(=O)c1ccc(NC(=O)c2ccc(Br)o2)cc1", "activity change, negative = inhibition": "-12.8% (inactive)"},
      {"smiles": "O=C(OCCCCN1C(=O)c2ccccc2C1=O)c1ccc(Br)o1", "activity change, negative = inhibition": "-2.9% (inactive)"},
      {"smiles": "NC(=O)COc1ccc2cc(-c3ccc(F)cc3)c(=O)oc2c1", "activity change, negative = inhibition": "-7.91% (inactive)"}
    ]}
  ]
}
